Measured values: patent US12377104B1, “Methods for treating a fatty liver disease” (Madrigal Pharmaceuticals, Inc., priority 2024, dated 2025)

Columns and labels:
[1] = tested on: adults with biopsy-confirmed NASH; test: MAESTRO-NASH: biomarkers PRO-C3 and P3NP/ELF; type: in vivo, human
Description: Pearson's correlation was used to examine the association between 2 PRO-C3 enzyme-linked immunosorbent assay (ELISA) assay methods (ELISA GEN1 and ELISA GEN2, NORDIC BIOSCIENCE) using PRO-C3 baseline data (N=919). The remainder of the analyses used the ELISA GEN2 assay. Mean SD or SE and median [Q1, Q3]were calculated to summarize PRO-C3 data. […] Mean difference with 95% CI and nominal P-values were obtained from the ANCOVA. Scatterplots and Spearman's correlations with 95% CIs were used to assess the associations between P3NP/ELF and PRO-C3 both at baseline and change from baseline at Week 52.

[2] = MAESTRO-NASH: metabolic factors (heart rate, body weight, blood pressure) at week 52; type: in vivo, human; details: for Body weight, LS mean % CFB / Body weight, LS mean % CFB difference from PBO / DBP, LS mean % CFB / DBP, LS mean % CFB difference from PBO / Glucose, LS mean % CFB / Glucose, LS mean % CFB difference from PBO / HOMA-IR, LS mean % CFB / HOMA-IR, LS mean % CFB difference from PBO / HbA1c, LS mean % CFB / HbA1c, LS mean % CFB difference from PBO / Heart rate (electrocardiogram), LS mean % CFB / Heart rate (electrocardiogram), LS mean % CFB difference from PBO / Insulin, LS mean % CFB / Insulin, LS mean % CFB difference from PBO / SBP, LS mean % CFB / SBP, LS mean % CFB difference from PBO: week 52
[3] = F1B patients only, 80 mg, Week 52
[4] = F1B patients only, 100 mg, Week 52
[5] = F2 patients only, 80 mg, Week 52
[6] = F2 patients only, 100 mg, Week 52
[7] = F3 patients only, 80 mg, Week 52
[8] = F3 patients only, 100 mg, Week 52
[9] = Overall, 80 mg, Week 52, ELISA GEN2
[10] = Overall, 100 mg, Week 52, ELISA GEN2

CC(C)c1cc(Oc2c(Cl)cc(-n3nc(C#N)c(=O)[nH]c3=O)cc2Cl)n[nH]c1=O [Resmetirom, 2-(3,5-dichloro-4-((5-isopropyl-6-oxo-1,6-dihydropyridazin-3-yl)oxy)phenyl)-3,5-dioxo-2,3,4,5-tetrahydro-1,2,4-triazine-6-carbonitrile]
PRO-C3 change from baseline ([1]; 80 mg, Week 52): −17.93 (4.61) | mean difference vs placebo in PRO-C3 change from baseline ([1]; 80 mg, Week 52): −16.9 | PRO-C3 change from baseline ([1]; 100 mg, Week 52): −23.05 (4.76) | mean difference vs placebo in PRO-C3 change from baseline ([1]; 100 mg, Week 52): −22.1 | Change from Baseline in PRO-C3, Mean [1, 3]: -0.69 ng/mL | Change from Baseline in PRO-C3, Median [1, 3]: 4.30 ng/mL | Change from Baseline in PRO-C3, Mean [1, 4]: -7.20 ng/mL | Change from Baseline in PRO-C3, Median [1, 4]: 0.40 ng/mL | Change from Baseline in PRO-C3, Mean [1, 5]: -11.51 ng/mL | Change from Baseline in PRO-C3, Median [1, 5]: -13.65 ng/mL | Change from Baseline in PRO-C3, Mean [1, 6]: -15.79 ng/mL | Change from Baseline in PRO-C3, Median [1, 6]: -10.10 ng/mL | Change from Baseline in PRO-C3, Mean [1, 7]: -22.42 ng/mL | Change from Baseline in PRO-C3, Median [1, 7]: -11.90 ng/mL | Change from Baseline in PRO-C3, Mean [1, 8]: -27.42 ng/mL | Change from Baseline in PRO-C3, Median [1, 8]: -18.30 ng/mL | PRO-C3 change from baseline ([1]; F3 patients, 80 mg, Week 52): −22.42 (6.38) | PRO-C3 change from baseline ([1]; F3 patients, 100 mg, Week 52): −27.42 (6.72) | Change from Baseline in PRO-C3, Mean [1, 9]: -17.93 ng/mL | Change from Baseline in PRO-C3, Median [1, 9]: -11.95 ng/mL | Change from Baseline in PRO-C3, Mean [1, 10]: -23.05 ng/mL | Change from Baseline in PRO-C3, Median [1, 10]: -13.40 ng/mL | Body weight, LS mean % CFB ([2]; 80 mg): −1.2% | Body weight, LS mean % CFB difference from PBO ([2]; 80 mg): 0.35% | DBP, LS mean % CFB ([2]; 80 mg): −1.6% | DBP, LS mean % CFB difference from PBO ([2]; 80 mg): −1.5% | Glucose, LS mean % CFB ([2]; 80 mg): 0.72% | Glucose, LS mean % CFB difference from PBO ([2]; 80 mg): 2.9% | HOMA-IR, LS mean % CFB ([2]; 80 mg): 9.1% | HOMA-IR, LS mean % CFB difference from PBO ([2]; 80 mg): −5.3% | HbA1c, LS mean % CFB ([2]; 80 mg): 1.7% | HbA1c, LS mean % CFB difference from PBO ([2]; 80 mg): 0.19% | Heart rate (electrocardiogram), LS mean % CFB ([2]; 80 mg): −1.7% | Heart rate (electrocardiogram), LS mean % CFB difference from PBO ([2]; 80 mg): −1.5% | Insulin, LS mean % CFB ([2]; 80 mg): 2.8% | Insulin, LS mean % CFB difference from PBO ([2]; 80 mg): 2.3% | SBP, LS mean % CFB ([2]; 80 mg): −1.9% | SBP, LS mean % CFB difference from PBO ([2]; 80 mg): 2.7% | Body weight, LS mean % CFB ([2]; 100 mg): −1.8% | Body weight, LS mean % CFB difference from PBO ([2]; 100 mg): −0.88% | DBP, LS mean % CFB ([2]; 100 mg): −2.0% | DBP, LS mean % CFB difference from PBO ([2]; 100 mg): −1.9% | Glucose, LS mean % CFB ([2]; 100 mg): −3.4% | Glucose, LS mean % CFB difference from PBO ([2]; 100 mg): 5.6% | HOMA-IR, LS mean % CFB ([2]; 100 mg): 3.4% | HOMA-IR, LS mean % CFB difference from PBO ([2]; 100 mg): 11.0% | HbA1c, LS mean % CFB ([2]; 100 mg): 1.5% | HbA1c, LS mean % CFB difference from PBO ([2]; 100 mg): 0.05% | Heart rate (electrocardiogram), LS mean % CFB ([2]; 100 mg): 2.6% | Heart rate (electrocardiogram), LS mean % CFB difference from PBO ([2]; 100 mg): −2.4% | Insulin, LS mean % CFB ([2]; 100 mg): 3.3% | Insulin, LS mean % CFB difference from PBO ([2]; 100 mg): 1.8% | SBP, LS mean % CFB ([2]; 100 mg): 2.1% | SBP, LS mean % CFB difference from PBO ([2]; 100 mg): 2.9% | blood pressure ([2]; in vivo): slightly reduced | effect on heart rate or body weight ([2]; in vivo): no effect on heart rate or body weight
